# Where a chain is given by its changes, count along the chain named.
# What was measured:
# Format in all cases: cell-based
# PfENT1 S317T = target: T1, PfENT1 S317T (Plasmodium falciparum, UniProt Q8IDM6, S317T); experiment: [3H]uridine uptake inhibition by purines in PfENT1-SNP-expressing yeast
# T1 sequence (Q8IDM6 1-422 S317T): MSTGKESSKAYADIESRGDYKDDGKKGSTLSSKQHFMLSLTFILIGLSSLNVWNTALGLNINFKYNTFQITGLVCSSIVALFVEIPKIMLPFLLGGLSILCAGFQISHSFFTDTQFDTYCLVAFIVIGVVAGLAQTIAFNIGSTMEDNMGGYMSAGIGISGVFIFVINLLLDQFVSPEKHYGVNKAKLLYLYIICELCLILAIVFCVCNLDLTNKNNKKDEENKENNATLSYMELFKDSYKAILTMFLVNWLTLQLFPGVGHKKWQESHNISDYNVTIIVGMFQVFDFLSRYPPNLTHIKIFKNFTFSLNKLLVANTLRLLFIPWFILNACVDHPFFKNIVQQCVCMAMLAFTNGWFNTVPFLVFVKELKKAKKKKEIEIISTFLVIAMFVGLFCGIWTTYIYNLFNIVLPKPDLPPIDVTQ
# PfENT1 V129I/L133F = target: T2, PfENT1 V129I/L133F (Plasmodium falciparum, UniProt Q8IDM6, L133F/V129I); experiment: as above
# T2 sequence (Q8IDM6 1-422 V129I/L133F): T1 sequence (Q8IDM6 1-422 S317T) with V129I, L133F, T317S
# WT PfENT1 = target: T3, WT PfENT1 (Plasmodium falciparum, UniProt Q8IDM6); experiment: [3H]uridine uptake inhibition by purines in PfENT1-expressing yeast
# T3 sequence (Q8IDM6 1-422): T1 sequence (Q8IDM6 1-422 S317T) with T317S
# PfENT1 F36S = target: T4, PfENT1 F36S (Plasmodium falciparum, UniProt Q8IDM6, F36S); experiment: [3H]uridine uptake inhibition by purines in PfENT1-SNP-expressing yeast
# T4 sequence (Q8IDM6 1-422 F36S): T1 sequence (Q8IDM6 1-422 S317T) with F36S, T317S
# PfENT1 L197F = target: T5, PfENT1 L197F (Plasmodium falciparum, UniProt Q8IDM6, L197F); experiment: as above
# T5 sequence (Q8IDM6 1-422 L197F): T1 sequence (Q8IDM6 1-422 S317T) with L197F, T317S
# PfENT1 A351S = target: T6, PfENT1 A351S (Plasmodium falciparum, UniProt Q8IDM6, A351S); experiment: as above
# T6 sequence (Q8IDM6 1-422 A351S): T1 sequence (Q8IDM6 1-422 S317T) with T317S, A351S
SMILES,IC50 (PfENT1 S317T) [µM],IC50 (PfENT1 V129I/L133F) [µM],IC50 (WT PfENT1) [µM],IC50 (PfENT1 F36S) [µM],IC50 (PfENT1 L197F) [µM],IC50 (PfENT1 A351S) [µM]
"Nc1ncnc2nc[nH]c12 [Adenine, adenine]",205 ± 49,930 ± 285,475 ± 124,292 ± 21,46 ± 5,1240 ± 142
"OC[C@H]1O[C@@H](n2cnc3c(O)ncnc32)[C@H](O)[C@@H]1O [Inosine, inosine]",28 ± 2,20 ± 7,20 ± 7,24 ± 7,37 ± 12,26 ± 9
"O=c1[nH]cnc2nc[nH]c12 [Hypoxanthine, hypoxanthine]",175 ± 31,360 ± 66,178 ± 44,171 ± 25,282 ± 8,576 ± 270

# Source: paper PMC9218960 (ACS infectious diseases, 2020)
